From patent publication US20130059096A1, “METHODS AND COATINGS FOR TREATING BIOFILMS” (President and Fellows of Harvard College, priority 2010, published 2013)

What was measured:
[1] = system: Bacillus subtilis NCIB3610; experiment: Pellicle (biofilm) formation in liquid biofilm-inducing medium; format: cell-based
Procedure: (§1) Colony and pellicle formation. For colony formation on solid medium, cells were first grown to exponential growth phase in LB broth and 3 μl of culture were spotted onto solid MSgg medium containing 1.5% Bacto agar. The plates were incubated at 23° C. For pellicle formation in liquid medium, cells were grown to exponential phase and 6 μl of culture were mixed with 6 ml of medium in a 12-well plate (VWR). Plates were incubated at 23° C. Images of colonies and pellicles were taken using a SPOT camera (Diagnostic Instruments, USA).
Preparing conditioned medium. Cells were grown in LB medium to exponential phase. 0.1 ml of culture was added to 100 ml of MSgg medium and grown without shaking in a 500 ml beaker at 23° C. Next, pellicles and conditioned medium was collected by centrifugation at 8,000 rpm for 15 min. The conditioned medium (supernatant fluid) was removed and filtered through a 0.22 μm filter. The filtrates were stored at 4° C. For further purification the biofilm-inhibiting activity was fractionated on a C-18 Sep Pak cartridge using stepwise elution of 0% to 100% methanol with steps of 5%.
To investigate whether mature biofilms produce a factor that triggers biofilm disassembly, the effect of concentrated and partially purified extracts of conditioned medium on pellicle formation when added to fresh medium was assayed. To this end, conditioned medium from an eight-day-old culture was applied to a C18 Sep Pak column. Concentrated eluate from the column was then added to a freshly inoculated culture. […] Further purification of the factor was achieved by eluting the cartridge in step-wise fashion with increasing concentrations of methanol.
Next, the minimum concentration (MIC for Minimal Inhibitory Concentration) needed to prevent biofilm formation was determined.

[2] = system: Bacillus subtilis NCIB3610; experiment: Colony biofilm formation on solid MSgg medium; format: cell-based; conditions: 3 μM, 4 days
Procedure: as §1

Bacillus subtilis [3] = experiment: Disruption of existing 3 day-old pellicles; format: cell-based; conditions: 3 μM added to 3 day-old cultures, further 8 hours
Bacillus subtilis [4] = experiment: Cell growth in MSgg medium with shaking; format: cell-based; conditions: 3 μM
[5] = system: matrix operons eps and yqxM; experiment: Expression of PyqxM-lacZ and PepsA-lacZ (β-galactosidase activity); format: cell-based, Bacillus subtilis; conditions: 3 μM, strains FC122 and FC5, MSgg, shaking
Procedure: Assays of β-galactosidase activity. Cells were cultured in MSgg medium at 37° C. in a water bath with shaking 1 ml of culture was collected at each time point. β-galactosidase activity was determined as described previously (Chai et al., Mol. Microbiol. 67:254 (2008)).

TasA-mCherry = format: cell-based, Bacillus subtilis; conditions: 6 μM
Procedure: Fluorescence microscopy. For fluorescence microscopy analysis, 1 ml of culture was harvested. The cells were washed with PBS buffer and suspended in 50 μl of PBS buffer. Cover slides were pretreated with poly L-lysine (Sigma). Samples were examined using an Olympus workstation BX61 microscope. Images were taken using the automated software program SimplePCI and analyzed with program MetaMorph (Universal Imaging Corporation).
The cells were grown to stationary phase with shaking in biofilm-inducing medium in the presence or absence of D-tyrosine (6 μM). […] In contrast, when the cells were washed by centrifugation, resuspended and then examined by fluorescence microscopy, untreated cells (which were often in clumps) were seen to be intensely decorated with TasA-mCherry. […] The localization of unmodified TasA protein was also analyzed by transmission electron microscopy using gold-labeled anti-TasA antibodies. […] 24-hour-old cultures were incubated without (images 1 and 2) or with (images 3-6) D-tyrosine (0.1 mM) for an additional 12 hours. TasA fibers were stained by immunogold labeling using anti-TasA antibodies, and visualized by transmission electron microscopy as described in the Examples. […] Filled arrows indicate fiber bundles; open arrows indicate individual fibers. The scale bar is 500 nm. The scale bar in the enlargements of images 2, 4 and 6 is 100 nm. […]

P.a. Harvard PA14 = experiment: Biofilm (colony architecture) formation on defined M63 medium; format: cell-based, Pseudomonas aeruginosa; conditions: 500 μM
From the text: Similarly to Bacillus subtilis, Pseudomonas aeruginosa forms a complex architecture on defined medium. These complex structures require the proper formation and assembly of the extra-cellular matrix. […] For these experiments, the organism/strain was P.a. Harvard PA14, the culture medium was M63 and the cell inoculation was at 1.5×10^9 cfu.

Pseudomonas aeruginosa = experiment: Attached single cells in well plate, Syto-9 staining; format: cell-based
Procedure: An alternative method to observe biofilm formation on a 6 well plate with or without D-amino acids and using Syto-9 staining was as follows: Pseudomonas aeruginosa biofilms were washed twice with PBS and then fixed for at least an hour in 5% Glutaraldehyde in PBS. The fixed biofilms were then rinsed once again with PBS and soaked in 0.1% v/v Triton X-100 in PBS (PBST) for 15 minutes. The solution was exchanged with 0.1 nM […] (Invitrogen) in cold PBST and gently rocked in the dark for at least 15 minutes. Fluorescence images of the biofilms were captured with a Leica DMRX compound microscope using a Xe lamp and a K3 Leica filtercube. […] The amount of attached single cells was quantified using image J. The decrease in the amount of cells attached to the epoxy surfaces soaked with D-aa compared with the L-aa control was substantially more.

N[C@H](Cc1ccc(O)cc1)C(=O)O [D-tyrosine]
Effect on pellicle formation (FIG. 2A) ([1]; 3 μM, freshly inoculated culture, biofilm-inducing medium, 3 days): significant inhibition of biofilm growth | minimum concentration (MIC / MBIC) needed to prevent biofilm formation ([1]; FIG. 2B, complete inhibition of pellicle formation, mixture in equimolar amounts): about 100 nM | Biofilm-inhibition assay for B. subtilis ([1]; summary statement, concentration not given): significant inhibition of biofilm growth | Biofilm formation on solid MSgg medium (FIG. 6) [2]: inhibited biofilm formation | Breakdown of existing pellicles (FIG. 2C) (Bacillus subtilis [3]): conspicuous breakdown of pellicles | Cell growth (FIG. 8) (Bacillus subtilis [4]): substantially the same as the untreated sample | yqxM and eps expression (FIG. 9A, 9B) [5]: substantially the same as the untreated sample | total accumulation of TasA-mCherry (FIG. 3B) (TasA-mCherry; grown to stationary phase with shaking): little or no effect | Cell decoration with TasA-mCherry, fluorescence microscopy of washed cells (TasA-mCherry; grown to stationary phase, washed and resuspended): only low levels of fluorescence | Biofilm formation on defined medium (FIG. 20) (P.a. Harvard PA14): inhibited biofilm formation | inhibition at 50 µM (Pseudomonas aeruginosa; Pseudomonas aeruginosa, 12 h, read-out: % Inhibition relative to control (0%, <50%, 50-90%, >90%)): > 90% | number of cells attached to the bottom of the biofilm plate (FIG. 21) (Pseudomonas aeruginosa; concentration not given): dramatic decrease in the number of cells attached
